Assay results reported in patent US20230136562A1, “SPIROUREA DERIVATIVES” (Idorsia Pharmaceuticals Ltd, priority 2020, published 2023).
Where two headings read alike, the source gives them in different places.

Experiments:
[1] = test system: primary neuronal cultures from embryonic rat brains; assay: Rat oscillation assay (FLIPR, neuronal calcium oscillations); format: cell-based; settings: Rattus norvegicus
Summary of the method: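 Cortical neurons from E18 Wistar rat embryos, cultured 8–10 days at high density, loaded with 1 μM Fluo-8 AM; calcium oscillations recorded by FLIPR once per second in Mg-free HBSS with 2 mM CaCl2, 20 mM HEPES, pH 7.4. Two acquisitions ("Acute", 500 sec, compound added at 250 sec; "20 min"), ± Kv7 blocker XE-991.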

Kv7.2/7.3 = biological target: T1, Kv7.2/7.3 (Homo sapiens, UniProt O43525+O43526); assay: Kv7.2/3 assay (FLIPR potassium assay, agonist mode); format: cell-based; settings: Kv7.2/7.3 activation; HEK293 cells, human KCNQ2 and KCNQ3
T1 construct: expressed in transfected cells; host or cells: HEK293
Description: HEK293 cells were stably transfected with the appropriate ion channel cDNA(s) (human KCNQ2 and KCNQ3 genes). Cells were cultured in Dulbecco's Modified Eagle Medium/Nutrient mixture F-12 (D-MEM/F-12) supplemented with 10% fetal bovine serum, 100 U/mL penicillin G sodium, 100 µg/mL streptomycin sulfate and selection antibiotics. FLIPR Test Procedure: For FLIPR assay, cells were plated in 384-well black clear-bottomed microtiter plates (BD Biocoat Poly-D-Lysine Multiwell Cell Culture Plate) at 15'000 to 30'000 cells per well. Cells were incubated at 37° C. overnight or until cells reached sufficient density in the wells (near confluent monolayer) to use in fluorescence assays. […] Assays were performed with the FLIPR potassium assay kit (Molecular Devices) according to the manufacturer's instructions. Dye-loading: Growth media was removed and replaced with 20 μL of dye loading buffer for 60 min at room temperature. FLIPR Recording (agonist mode): Stock solutions of test compounds were prepared at a concentration of 33.3 mM in DMSO. 5 μL of 5× concentrated test, vehicle, or control compounds solutions prepared in the stimulation buffer (K^+-free buffer with 5 mM TI^+) were added to each well and fluorescence recording was continued for 5 min. The agonist effect (EC50 and % effect) of test or control compounds on Kv7 channels was determined as follows: Raw data was exported using Screenworks® 4.2 software and the fluorescence traces were analysed using Microsoft Excel (Microsoft Corp., Redmond, Wash.). The test compounds responses were expressed as % of maximum response of the control compound Flupirtine (Sigma-Aldrich), which was tested at concentrations ranging from 0.03 to 100 μM. Concentration-response data were fitted to a Hill equation. Non-linear least squares fits were made assuming a simple binding model. If appropriate, fits were weighted by the standard deviation. No assumptions about the fit parameters were made; the fit parameters were determined by the algorithm.

[2] = 20 min, AUC of fluorescence measured 20 min after compound addition, read-out: FLIPR: IC50 [nM] 20 min
[3] = Acute phase, ratio of AUC fluorescence before and after compound addition, read-out: FLIPR: IC50 [nM] acute

Molecule `O=C(NCc1cccc(C2(C(F)(F)F)CC2)c1)NC1CC2(CCC2)C1` [Example 37, 1-Spiro[3.3]hept-2-yl-3-[3-(1-trifluoromethyl-cyclopropyl)-benzyl]-urea] has an IC50 [1, 2] of 8.1 nM, an IC50 [1, 3] of 10 nM and an EC50 (Kv7.2/7.3) of 1.5 nM.
With `Cc1nc(CNC(=O)NC2CC3(CCC3)C2)cc(OCC(F)(F)F)n1` [Example 60, 1-[2-Methyl-6-(2,2,2-trifluoro-ethoxy)-pyrimidin-4-ylmethyl]-3-spiro[3.3]hept-2-yl-urea] the IC50 [1, 2] was 144 nM, the IC50 [1, 3] was 109 nM and the EC50 (Kv7.2/7.3) was 42 nM.
`O=C(NCc1cccc(C(F)(F)F)c1)NC1CC2(CCC2)C1` [Example 1, 1-Spiro[3.3]hept-2-yl-3-(3-trifluoromethyl-benzyl)-urea] gave an IC50 [1, 2] of 20 nM, an IC50 [1, 3] of 27 nM and an EC50 (Kv7.2/7.3) of 30 nM.
`C[C@H](NC(=O)NC1CC2(CCC2)C1)c1cccc(C(F)(F)F)c1` (single isomer, unassigned) [Example 175] showed an IC50 [1, 2] of 5.5 nM, an IC50 [1, 3] of 9 nM and an EC50 (Kv7.2/7.3) of 30 nM.
Work on `O=C(NCc1ccnc(OCC(F)(F)F)c1)NC1CC2(CCC2)C1` [Example 103, 1-Spiro[3.3]hept-2-yl-3-[2-(2,2,2-trifluoro-ethoxy)-pyridin-4-ylmethyl]-urea] yielded an IC50 [1, 2] of 7.4 nM, an IC50 [1, 3] of 4.8 nM and an EC50 (Kv7.2/7.3) of 1.5 nM.
For `CC(NC(=O)NC1CC2(CC2)C1)c1cccc(C(F)(F)F)c1` (racemic) [Example 140, (±)-1-Spiro[2.3]hex-5-yl-3-[1-(3-trifluoromethyl-phenyl)-ethyl]-urea], the IC50 [1, 2] was 59 nM and the IC50 [1, 3] was 27 nM.
`CC(NC(=O)NC1CC2(CC2)C1)c1cccc(S(F)(F)(F)(F)F)c1` (racemic) [Example 127, (±)-1-(1-(3-(pentafluoro-λ^6-sulfaneyl)phenyl)ethyl)-3-(spiro[2.3]hexan-5-yl)urea] showed an IC50 [1, 2] of 22 nM and an IC50 [1, 3] of 19 nM.
With `C[C@@H](NC(=O)NC1CC2(CCC2)C1)c1ccnc(OC(F)F)c1` (single isomer, unassigned) [Example 167] the IC50 [1, 2] was 1750 nM and the IC50 [1, 3] was 1280 nM.
Work on `COCC(NC(=O)NC1CC2(CC2)C1)c1cccc(C(F)(F)F)c1` (racemic) [Example 147, (±)-1-[2-Methoxy-1-(3-trifluoromethyl-phenyl)-ethyl]-3-spiro[2.3]hex-5-yl-urea] yielded an IC50 [1, 2] of 23 nM and an IC50 [1, 3] of 18 nM.
In the case of `CC(NC(=O)NC1CC2(CC2)C1)c1ccnc(OC(F)F)c1` (racemic) [Example 139, (±)-1-[1-(2-Difluoromethoxy-pyridin-4-yl)-ethyl]-3-spiro[2.3]hex-5-yl-urea], the IC50 [1, 2] is reported as 365 nM and the IC50 [1, 3] is reported as 186 nM.
`O=C(NCc1ccnc(NCC(F)(F)F)c1)NC1CC2(CCC2)C1` [Example 116, 1-Spiro[3.3]hept-2-yl-3-[2-(2,2,2-trifluoro-ethylamino)-pyridin-4-ylmethyl]-urea] was tested, and the IC50 [1, 2] was 609 nM, the IC50 [1, 3] was 530 nM and the EC50 (Kv7.2/7.3) was 161 nM.
`O=C(NC1CC2(CC2)C1)NC(CO)c1cc(OCC(F)(F)F)ncn1` (racemic) [Example 122, (±)-1-{2-Hydroxy-1-[6-(2,2,2-trifluoro-ethoxy)-pyrimidin-4-yl]-ethyl}-3-spiro[2.3]hex-5-yl-urea] gave an IC50 [1, 2] of 658 nM and an IC50 [1, 3] of 339 nM.
Molecule `CS(=O)(=O)CCC(NC(=O)NC1CC2(CCC2)C1)c1cccc(C(F)(F)F)c1` (racemic) [Example 81, (±)-1-[3-Methanesulfonyl-1-(3-trifluoromethyl-phenyl)-propyl]-3-spiro[3.3]hept-2-yl-urea] has an IC50 [1, 2] of 941 nM and an IC50 [1, 3] of 2180 nM.
Work on `CC(NC(=O)NC1CC2(CC2)C1)c1cc(F)cc(OCC(F)(F)F)c1` (racemic) [Example 132, (±)-1-{1-[3-Fluoro-5-(2,2,2-trifluoro-ethoxy)-phenyl]-ethyl}-3-spiro[2.3]hex-5-yl-urea] yielded an IC50 [1, 2] of 110 nM and an IC50 [1, 3] of 79 nM.
For `CC(NC(=O)NC1CC2(CCC2)C1)c1cc(OCC(F)(F)F)ccc1Cl` (racemic) [Example 39, (±)-1-{1-[2-Chloro-5-(2,2,2-trifluoro-ethoxy)-phenyl]-ethyl}-3-spiro[3.3]hept-2-yl-urea], the IC50 [1, 2] was 571 nM and the IC50 [1, 3] was 487 nM.
`O=C(NC1CC2(CCC2)C1)NC1COc2ccc(OC(F)(F)F)cc21` (racemic) [Example 11, (±)-1-Spiro[3.3]hept-2-yl-3-(5-trifluoromethoxy-2,3-dihydro-benzofuran-3-yl)-urea] gave an IC50 [1, 2] of 171 nM and an IC50 [1, 3] of 246 nM.
`O=C(NCc1cccc(C(F)(F)F)c1F)NC1CC2(CC2)C1` [Example 149, 1-(2-Fluoro-3-trifluoromethyl-benzyl)-3-spiro[2.3]hex-5-yl-urea] showed an IC50 [1, 2] of 103 nM and an IC50 [1, 3] of 98 nM.
For `COc1c(OCC(F)(F)F)cccc1C(C)NC(=O)NC1CC2(CCC2)C1` (racemic) [Example 31, (±)-1-{1-[2-Methoxy-3-(2,2,2-trifluoro-ethoxy)-phenyl]-ethyl}-3-spiro[3.3]hept-2-yl-urea], the IC50 [1, 2] was 25 nM and the IC50 [1, 3] was 20 nM.
Work on `COc1c(CNC(=O)NC2CC3(CCC3)C2)cccc1C(F)(F)F` [Example 22, 1-(2-Methoxy-3-trifluoromethyl-benzyl)-3-spiro[3.3]hept-2-yl-urea] yielded an IC50 [1, 2] of 268 nM and an IC50 [1, 3] of 275 nM.
For `CC(Oc1ccnc(CNC(=O)NC2CC3(CCC3)C2)c1)C(F)(F)F` (racemic) [Example 117, (±)-1-Spiro[3.3]hept-2-yl-3-[4-(2,2,2-trifluoro-1-methyl-ethoxy)-pyridin-2-ylmethyl]-urea], the IC50 [1, 2] was 286 nM and the IC50 [1, 3] was 195 nM.
`COCCOCC(NC(=O)NC1CC2(CCC2)C1)c1cccc(C(F)(F)F)c1` (racemic) [Example 71, (±)-1-[2-(2-Methoxy-ethoxy)-1-(3-trifluoromethyl-phenyl)-ethyl]-3-spiro[3.3]hept-2-yl-urea] gave an IC50 [1, 2] of 105 nM and an IC50 [1, 3] of 92 nM.
With `Cn1nncc1C(NC(=O)NC1CC2(CCC2)C1)c1cccc(C(F)(F)F)c1` (racemic) [Example 165, (±)-1-[(3-Methyl-3H-[1,2,3]triazol-4-yl)-(3-trifluoromethyl-phenyl)-methyl]-3-spiro[3.3] hept-2-yl-urea] the IC50 [1, 2] was 289 nM and the IC50 [1, 3] was 145 nM.
Work on `O=C(NC1CC2(CCC2)C1)NC(c1cccc(C(F)(F)F)c1)C(F)F` (centres unmarked) [Example 57, 1-[2,2-Difluoro-1-(3-trifluoromethyl-phenyl)-ethyl]-3-spiro[3.3]hept-2-yl-urea] yielded an IC50 [1, 2] of 2.3 nM and an IC50 [1, 3] of 2.9 nM.
`O=C(NC1CC2(CCC2)C1)NC(CCO)c1cc(OCC(F)(F)F)ncn1` (racemic) [Example 85, (±)-1-{3-Hydroxy-1-[6-(2,2,2-trifluoro-ethoxy)-pyrimidin-4-yl]-propyl}-3-spiro[3.3]hept-2-yl-urea] was tested, and the IC50 [1, 2] was 146 nM and the IC50 [1, 3] was 157 nM.
With `Cc1nc(OCC(F)(F)F)cc(C(C)NC(=O)NC2CC3(CCC3)C2)n1` (racemic) [Example 68, (±)-1-{1-[2-Methyl-6-(2,2,2-trifluoro-ethoxy)-pyrimidin-4-yl]-ethyl}-3-spiro[3.3]hept-2-yl-urea] the IC50 [1, 2] was 18 nM and the IC50 [1, 3] was 18 nM.
`CC(NC(=O)NC1CC2(CC2)C1)c1cccc(OC(F)F)c1` (racemic) [Example 124, (±)-1-[1-(3-Difluoromethoxy-phenyl)-ethyl]-3-spiro[2.3]hex-5-yl-urea] was tested, and the IC50 [1, 2] was 280 nM and the IC50 [1, 3] was 69 nM.
Work on `O=C(NC1CC2(CCC2)C1)N[C@H](CO)c1cccc(C(F)(F)F)c1` (single isomer, unassigned) [Example 185] yielded an IC50 [1, 2] of 753 nM and an IC50 [1, 3] of 936 nM.
`O=C(NCc1cccc(C(F)F)c1)NC1CC2(CCC2)C1` [Example 15, 1-(3-Difluoromethyl-benzyl)-3-spiro[3.3]hept-2-yl-urea] showed an IC50 [1, 2] of 126 nM and an IC50 [1, 3] of 124 nM.
In the case of `CC(NC(=O)NC1CC2(CC2)C1)c1cccc(OC(F)(F)F)c1` (racemic) [Example 141, (±)-1-Spiro[2.3]hex-5-yl-3-[1-(3-trifluoromethoxy-phenyl)-ethyl]-urea], the IC50 [1, 2] is reported as 26 nM and the IC50 [1, 3] is reported as 22 nM.
For `O=C(NCc1cccc(C(F)(F)F)c1)NC1CC2(C1)CC2(F)F` (centres unmarked) [Example 3, 1-(1,1-Difluoro-spiro[2.3]hex-5-yl)-3-(3-trifluoromethyl-benzyl)-urea], the IC50 [1, 2] was 186 nM and the IC50 [1, 3] was 122 nM.
In the case of `CC(Oc1cc(F)cc(CNC(=O)NC2CC3(CCC3)C2)c1)C(F)(F)F` (racemic) [Example 110, (±)-1-[3-Fluoro-5-(2,2,2-trifluoro-1-methyl-ethoxy)-benzyl]-3-spiro[3.3]hept-2-yl-urea], the IC50 [1, 2] is reported as 62 nM and the IC50 [1, 3] is reported as 88 nM.
With `C[C@H](NC(=O)NC1CC2(CCC2)C1)c1ccc(F)c(OCC(F)(F)F)c1` (single isomer, unassigned) [Example 177] the IC50 [1, 2] was 24 nM, the IC50 [1, 3] was 22 nM and the EC50 (Kv7.2/7.3) was 7 nM.
